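Where inhibition never reached the appropriate level, the endpoint shown equals the highest concentration tested. Otherwise, values were interpolated linearly from a five-concentration, 48-hour dose response in 96-well plates. The concentration for full growth arrest is given as TGI.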
Legend:
Test in all cases: NCI tumour cell line growth inhibition, 48 h
[1] = tested on: COLO 205 colon
[2] = tested on: NCI-H23 lung
[3] = tested on: NCI-H522 lung
[4] = tested on: KM12 colon
[5] = tested on: SK-OV-3 ovarian
[6] = tested on: SR leukemia
[7] = tested on: RXF 393 renal
[8] = tested on: NCI-H460 lung
[9] = tested on: EKVX NSCLC
[10] = tested on: MCF7 breast
[11] = tested on: DU-145 prostate
[12] = tested on: CCRF-CEM leukemia
[13] = tested on: HCT-116 colon
[14] = tested on: OVCAR-8 ovarian
[15] = tested on: RPMI-8226 leukemia
[16] = tested on: SK-MEL-28 melanoma
[17] = tested on: UACC-257 melanoma
[18] = tested on: BT-549 breast
[19] = tested on: HOP-62 NSCLC
[20] = tested on: HS 578T breast
[21] = tested on: HCT-15 colon
[22] = tested on: HL-60(TB) leukemia
[23] = tested on: UO-31 renal
[24] = tested on: T-47D breast
[25] = tested on: SW-620 colon
[26] = tested on: K-562 leukemia
[27] = tested on: U251 CNS
[28] = tested on: SK-MEL-5 melanoma
[29] = tested on: MDA-MB-435
[30] = tested on: ACHN renal
[31] = tested on: SF-295 CNS
[32] = tested on: CAKI-1 renal
[33] = tested on: SF-268 CNS
[34] = tested on: NCI-H226 lung
[35] = tested on: SF-539 CNS
[36] = tested on: UACC-62 melanoma
[37] = tested on: MDA-MB-231 breast
[38] = tested on: SNB-75 CNS
[39] = tested on: HCC-2998 colon
[40] = tested on: IGROV1 ovarian
[41] = tested on: PC-3 prostate
[42] = tested on: OVCAR-4 ovarian
[43] = tested on: OVCAR-3 ovarian
[44] = tested on: TK-10 renal
[45] = tested on: MOLT-4 leukemia
[46] = tested on: 786-0 renal
[47] = tested on: NCI/ADR-RES ovarian
[48] = tested on: SNB-19 CNS
[49] = tested on: A549 NSCLC
[50] = tested on: SN12C renal
[51] = tested on: MDA-N
[52] = tested on: M14 melanoma
[53] = tested on: MALME-3M melanoma
[54] = tested on: SK-MEL-2 melanoma
[55] = tested on: OVCAR-5 ovarian
[56] = tested on: A498 renal
[57] = tested on: HT29 colon
[58] = tested on: HOP-92 NSCLC
[59] = tested on: LOX IMVI melanoma

COC(=O)c1ccc(/C=C2\Oc3cc(O)ccc3C2=O)cc1
TGI [1]: > 100 µM | TGI [2]: > 100 µM | TGI [3]: > 100 µM | TGI [4]: > 100 µM | TGI [5]: > 100 µM | TGI [6]: > 100 µM | TGI [7]: 77.3 µM | TGI [8]: > 100 µM | TGI [9]: > 100 µM | TGI [10]: > 100 µM | TGI [11]: > 100 µM | TGI [12]: > 100 µM | TGI [13]: > 100 µM | TGI [14]: > 100 µM | TGI [15]: > 100 µM | TGI [16]: > 100 µM | TGI [17]: > 100 µM | TGI [18]: > 100 µM | TGI [19]: > 100 µM | TGI [20]: > 100 µM | TGI [21]: > 100 µM | TGI [22]: > 100 µM | TGI [23]: > 100 µM | TGI [24]: > 100 µM | TGI [25]: > 100 µM | TGI [26]: > 100 µM | TGI [27]: > 100 µM | TGI [28]: > 100 µM | TGI [29]: > 100 µM | TGI [30]: > 100 µM | TGI [31]: > 100 µM | TGI [32]: > 100 µM | TGI [33]: > 100 µM | TGI [34]: > 100 µM | TGI [35]: > 100 µM | TGI [36]: > 100 µM | TGI [37]: > 100 µM | TGI [38]: > 100 µM | TGI [39]: > 100 µM | TGI [40]: > 100 µM | TGI [41]: > 100 µM | TGI [42]: > 100 µM | TGI [43]: > 100 µM | TGI [44]: > 100 µM | TGI [45]: > 100 µM | TGI [46]: > 100 µM | TGI [47]: > 100 µM | TGI [48]: > 100 µM | TGI [49]: > 100 µM | TGI [50]: > 100 µM | TGI [51]: > 100 µM | TGI [52]: > 100 µM

O=C(CSc1nc2ccc(I)cc2c(=O)n1Cc1ccccc1)NN1C(=O)c2ccccc2C1=O
TGI [1]: > 100 µM | TGI [2]: 44.7 µM | TGI [3]: 34.1 µM | TGI [4]: > 100 µM | TGI [5]: 29.1 µM | TGI [6]: > 100 µM | TGI [53]: 62.8 µM | TGI [7]: 25.5 µM | TGI [8]: > 100 µM | TGI [9]: 42.2 µM | TGI [10]: > 100 µM | TGI [11]: 95.1 µM | TGI [13]: > 100 µM | TGI [14]: 34.1 µM | TGI [15]: > 100 µM | TGI [16]: 49.9 µM | TGI [17]: 51.4 µM | TGI [54]: 28.4 µM | TGI [18]: 36.2 µM | TGI [19]: 24 µM | TGI [20]: 43.1 µM | TGI [21]: > 100 µM | TGI [22]: 33.5 µM | TGI [55]: 86.7 µM | TGI [23]: 6.14 µM | TGI [24]: 50 µM | TGI [25]: > 100 µM | TGI [26]: > 100 µM | TGI [27]: 30.1 µM | TGI [28]: 68.6 µM | TGI [29]: > 100 µM | TGI [30]: 68.9 µM | TGI [31]: 29.4 µM | TGI [32]: 33.5 µM | TGI [33]: 36.4 µM | TGI [56]: 35.7 µM | TGI [34]: 23.5 µM | TGI [35]: 15.5 µM | TGI [36]: 70.7 µM | TGI [37]: 32 µM | TGI [57]: > 100 µM | TGI [38]: 21.8 µM | TGI [58]: 35.9 µM | TGI [39]: > 100 µM | TGI [40]: 64.2 µM | TGI [41]: 19.6 µM | TGI [42]: 38.2 µM | TGI [43]: 28.6 µM | TGI [44]: 30.4 µM | TGI [45]: 95 µM | TGI [59]: 44.9 µM | TGI [46]: > 100 µM | TGI [47]: 42.8 µM | TGI [48]: 57.3 µM | TGI [49]: 72.5 µM | TGI [50]: 57.3 µM | TGI [51]: > 100 µM | TGI [52]: > 100 µM

Reference: PubChem BioAssay (NCI)
